What follows are compounds tested against T1, Muscarinic acetylcholine receptor M2 (Rattus norvegicus, UniProt P10980).
T1 sequence (P10980 whole entry): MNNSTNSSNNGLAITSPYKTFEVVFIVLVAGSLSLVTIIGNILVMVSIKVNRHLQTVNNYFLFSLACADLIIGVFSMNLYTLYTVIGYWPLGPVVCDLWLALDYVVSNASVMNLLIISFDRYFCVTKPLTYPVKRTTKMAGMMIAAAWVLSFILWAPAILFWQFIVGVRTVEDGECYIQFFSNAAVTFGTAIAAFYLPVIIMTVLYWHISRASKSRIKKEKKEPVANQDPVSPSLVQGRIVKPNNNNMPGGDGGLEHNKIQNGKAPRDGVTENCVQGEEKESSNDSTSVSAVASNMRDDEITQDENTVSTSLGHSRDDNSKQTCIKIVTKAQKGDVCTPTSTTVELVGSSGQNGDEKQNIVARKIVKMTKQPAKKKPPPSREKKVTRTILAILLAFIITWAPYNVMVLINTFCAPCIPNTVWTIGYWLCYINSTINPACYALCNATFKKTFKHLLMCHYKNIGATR

Q: How did the Ki turn out when `CC(C)[N+](C)(CCC(C(N)=O)(c1ccccc1)c1ccccc1)C(C)C` was run?
A: 1 nM

Q: Which Ki does the source give for `O=C1CCCN1CC#CCN1CCCC1` [1-[4-(2-oxo-pyrrolidin-1-yl)-but-2-ynyl]-pyrrolidinium] here?
A: 500 nM

Q: With `CN(C)CCC(c1ccc(Br)cc1)c1ccccn1` (stereo not drawn) [2-(p-bromo-alpha-(2-dimethylaminoethyl)benzyl)pyridine] as the compound, how does the Ki read?
A: > 10000 nM

Q: How did the Ki turn out when `O=C(O)C=CC(=O)Oc1ccc(Cl)cc1` [NSC_6445134] was run?
A: > 10000 nM

Q: Which Ki does the source give for `CN(C)CCC(c1ccc(Cl)cc1)c1ccccn1` (stereo not given) [clorfeniramina] here?
A: > 10000 nM
